Source: patent US7910622B2, “Modulation of bacterial quorum sensing with synthetic ligands” (Wisconsin Alumni Research Foundation, priority 2007, dated 2011)
Values joined by “and” are separate entries in the source; they are usually repeats but may differ in a detail not shown here. Identical values can stand only once. Like-named read-outs stand apart in the source and are kept apart here. Marks after values point to notes of the source that are not given here.

What was measured:
Experiment in all cases: cell-based
LuxR [1] = target: T1, LuxR (Aliivibrio fischeri, UniProt P35327); format: cell-based, Vibrio fischeri; details: for V. fischeri-LuxR Inhibition [%]: 5 μM synthetic ligand against 5 μM OHHL; for V. fischeri-LuxR Inhibition [%] / inhibition at 5 µM: V. fischeri ES114 (Δ-luxI), normalized to OHHL; for inhibition at 5 µM: read-out: V. fischeri-LuxR Inhibition [%], 5 μM synthetic ligand against 5 μM OHHL; for IC50: LuxR IC50, determined against 5 μM OHHL
T1 construct: a Δ-luxI derivative of V. fischeri ES114, in which the native lux operon behaves as the bioluminescent reporter; endogenous in cells; host or cells: V. fischeri ES114 (Δ-luxI)
T1 sequence (P35327 whole entry): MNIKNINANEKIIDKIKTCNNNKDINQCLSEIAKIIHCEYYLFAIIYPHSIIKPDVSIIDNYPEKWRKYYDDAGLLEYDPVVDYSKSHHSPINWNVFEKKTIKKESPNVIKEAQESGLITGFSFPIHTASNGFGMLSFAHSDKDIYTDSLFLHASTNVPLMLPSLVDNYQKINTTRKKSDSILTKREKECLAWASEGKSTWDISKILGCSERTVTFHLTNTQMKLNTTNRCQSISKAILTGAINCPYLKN
Experimental: (§1) Luminescence assays. For agonism assays, an appropriate amount of AHL stock solution was added into a 96-well plate. An overnight culture of E. coli or V. fischeri was diluted 1:10 with appropriate media (LB plus 10 μg/mL tetracycline for E. coli; LBS for V. fischeri). A 200-μL portion of the diluted culture was added to each well of the plate. Plates were grown for 4-8 h with shaking (200 rpm; 30° C. for E. coli and RT for V. fischeri). Luminescence was measured using a multilabel plate reader and normalized to cell density. […] All assays were performed in triplicate. Graphpad Prism software was used to calculate IC50 and EC50 values.
(§2) Vibrio fischeri assay procedures. […] An overnight culture of V. fischeri ES114 (WT, Δ-luxI or Δ-luxR) was diluted 1:10 with LBS medium. A-200 μL portion of the diluted culture was added to each well of the plate. Plates were grown at RT with shaking (200 rpm) until the OD600=0.35-0.4 (4-6 h). Luminescence then was measured and normalized to cell density per well. […] All assays were performed in triplicate. IC50 and EC50 values were calculated using GraphPad Prism software using a sigmoidal curve fit.
(§3) V. fischeri reporter gene assay protocols. […] An overnight culture of V. fischeri ES114 (D-luxI) was diluted 1:10 with LBS medium. A 200-μL portion of the diluted culture was added to each well of the multititer plate. Plates were grown at RT with shaking (200 rpm) until the OD600=0.35-0.4 (4-6 h). Luminescence then was measured and normalized to cell density per well.
(§4) Dose response reporter gene assays. […] IC50 and EC50 values were calculated using GraphPad Prism software (v. 4.0) using a sigmoidal curve fit.
as §3, with “(Δ-luxI)” for “(D-luxI)”, “A200 μL” for “A 200-μL”, “incubated” for “grown”, “RT” for “RT with shaking (200 rpm)”
as §4

LasR [2] = target: T2, LasR (Pseudomonas aeruginosa, UniProt P25084); details: for E. coli-LasR Activation [%]: 5 μM ligand; for E. coli-LasR Activation [%] / activation at 5 µM: E. coli DH5α (pJN105L pSC11), normalized to OdDHL; for activation at 5 µM: read-out: E. coli-LasR Activation [%], 5 μM ligand
T2 construct: expressed in transfected cells; host or cells: E. coli DH5α (pJN105L pSC11), arabinose-induced
T2 sequence (P25084 whole entry): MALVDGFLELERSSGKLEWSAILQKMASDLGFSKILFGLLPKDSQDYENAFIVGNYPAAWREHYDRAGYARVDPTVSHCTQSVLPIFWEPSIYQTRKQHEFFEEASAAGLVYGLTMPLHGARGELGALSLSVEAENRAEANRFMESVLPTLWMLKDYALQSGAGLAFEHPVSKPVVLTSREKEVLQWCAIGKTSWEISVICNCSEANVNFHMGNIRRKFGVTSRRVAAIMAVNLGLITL
Experimental: (§5) E. coli LasR reporter gene assay protocols. […] An overnight culture of E. coli DH5a (pJN105L pSC11) grown at 37° C. was subculture by diluting 1/10 in fresh LB medium containing 100 μg/mL ampicillin and 15 μg/mL gentamicin and shaking at 37° C. until OD600=0.3. Arabinose (4 mg/mL) was then added to induce the LasR promoter and a 200 μL-portion of this culture was added to each well of the multititer plate containing AHLs. Plates were grown at 37° C. for 2 hours in a rotary shaking incubator (200 rpm; OD600=0.45). The cultures were then assayed for activity following the identical β-galactosidase assay protocols used in the A. tumefaciens reporter gene assays.
as §4
(§6) E. coli LasR reporter gene assay protocols. […] An overnight culture of E. coli DH5α (pJN105L pSC11) was diluted 1:10 with fresh LB medium containing 100 μg/mL ampicillin and 15 μg/mL gentamicin. This sub-culture was incubated at 37° C. until OD600=0.3 (4-6 h). Arabinose (4 mg/mL) was then added to induce the LasR promoter, and a 200 μL portion of this culture was added to each well of the multititer plate containing AHLs. Plates were incubated at 37° C. until OD600=0.45 (4-6 h). The cultures were then assayed for LasR activity following the identical β-galactosidase assay protocols used in the A. tumefaciens reporter gene assays (see above).
as §4

TraR = target: T3, TraR (Agrobacterium tumefaciens, UniProt P33905); details: for A. tumefaciens-TraR Activation [%]: 10 μM ligand; for A. tumefaciens-TraR Activation [%] / A. tumefaciens-TraR Inhibition [%] / inhibition at 10 µM: A. tumefaciens WCF47 (pCF372), normalized to OOHL; for A. tumefaciens-TraR Inhibition [%]: 10 μM synthetic ligand against 100 nM OOHL; for activation at 10 µM: read-out: A. tumefaciens-TraR Activation [%]; for inhibition at 10 µM: read-out: A. tumefaciens-TraR Inhibition [%], 10 μM synthetic ligand against 100 nM OOHL
T3 construct: These strains lack their AHL synthase (I) genes, but retain their native R genes; endogenous in cells; host or cells: A. tumefaciens WCF47 (Δ-traI) with PtraI-lacZ plasmid pCF372
T3 sequence (P33905 whole entry): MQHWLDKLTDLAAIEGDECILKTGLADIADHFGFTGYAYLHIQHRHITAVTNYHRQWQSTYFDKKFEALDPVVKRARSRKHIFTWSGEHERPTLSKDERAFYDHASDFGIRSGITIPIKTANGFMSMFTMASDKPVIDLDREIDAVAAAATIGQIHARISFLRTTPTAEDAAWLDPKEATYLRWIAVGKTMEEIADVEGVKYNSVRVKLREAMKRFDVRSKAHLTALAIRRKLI
Experimental: A. tumefaciens reporter gene assay protocols. […] An overnight culture of A. tumefaciens WCF47 (pCF372) was diluted to an OD600 of 0.1 in fresh AB minimal medium containing 400 μg/mL octopine and 50 μg/mL streptomycin. A 200 μL-portion of the diluted culture was added to each well of the multititer plate containing AHLs. Plates were grown at 28° C. for 18-20 h in a rotary shaking incubator (200 rpm). The cultures were then assayed for β-galactosidase activity following the Miller assay method. Briefly, 200 μL aliquots of bacteria from each of the wells were added to wells of a polystyrene 96-well plate and the OD600 of each well was recorded. Next, 50 μL aliquots from each well were transferred to a solvent resistant 96-well plate containing 200 μL Z buffer, 8 μL CHCl3 and 4 μL 0.1% aq. sodium dodecylsulfate (SDS). This suspension was mixed via repetitive pipetting, after which the CHCl3 was allowed to settle. A 100-μL aliquot from each well was transferred to a fresh polystyrene 96-well plate, and 20 μL of substrate, o-nitrophenyl-β-D-galactopyranoside (ONPG, 4 μg/mL in phosphate buffer), was added at time zero. After the development of appropriate yellow color (ca. 15-35 min), the reaction was terminated by the addition of 50 μL of 1 M Na2CO3. Absorbance at 420 nm and 550 nm was measured for each well using a plate reader, and Miller units were calculated according to standard methods.
as §4
A. tumefaciens reporter gene assay protocols. […] An overnight culture of A. tumefaciens WCF47 (pCF372) was diluted 1:10 with fresh AB minimal medium containing 400 μg/mL octopine and 50 μg/mL streptomycin. A 200 μL portion of the diluted culture was added to each well of the multititer plate containing AHLs. Plates were incubated at 28° C. for 18-24 h. The cultures were then assayed for β-galactosidase activity following the Miller assay method. Briefly, 200 μL aliquots of bacteria from each of the wells were added to wells of a 96-well multititer plate, and the OD600 of each well was recorded. Next, 50 μL aliquots from each well were transferred to a solvent resistant 96-well multititer plate containing 200 μL Z buffer, 8 μL CHCl3 and 4 μL 0.1% aq. SDS. This suspension was mixed via repetitive pipetting, after which the CHCl3 was allowed to settle. A 100 μL aliquot from each well was transferred to a fresh 96-well multititer plate, and 20 μL of substrate, o-nitrophenyl-β-D-galactopyranoside (ONPG, 4 μg/mL in phosphate buffer), was added at time zero. After the development of appropriate yellow color (ca. 20-30 min), the reaction was terminated by the addition of 50 μL of 1 M Na2CO3. Absorbances at 420 nm and 550 nm were measured for each well using a plate reader, and Miller units were calculated according to standard methods.
as §4

LuxR [3] = target: T1, LuxR; set-up: species or system Vibrio fischeri; details: for V. fischeri-LuxR Activation [%]: 200 μM ligand; for V. fischeri-LuxR Activation [%] / activation at 200 µM: V. fischeri ES114 (Δ-luxI), normalized to OHHL; for activation at 200 µM: read-out: V. fischeri-LuxR Activation [%], 200 μM ligand
Experimental: as §1, §2, §3, §4
as §3, with “(Δ-luxI)” for “(D-luxI)”, “A200 μL” for “A 200-μL”, “incubated” for “grown”, “RT” for “RT with shaking (200 rpm)”
as §4

LasR [4] = target: T2, LasR; format: cell-based; details: for E. coli-LasR Inhibition [%]: 5 μM synthetic ligand against 7.5 nM OdDHL; for E. coli-LasR Inhibition [%] / inhibition at 5 µM: E. coli DH5α (pJN105L pSC11), normalized to OdDHL; for inhibition at 5 µM: read-out: E. coli-LasR Inhibition [%], 5 μM synthetic ligand against 7.5 nM OdDHL
Experimental: as §5, §4, §6, §4

Row | Compound | V. fischeri-LuxR Inhibition [%] (LuxR [1]) | E. coli-LasR Activation [%] (LasR [2]) | A. tumefaciens-TraR Activation [%] (TraR) | A. tumefaciens-TraR Inhibition [%] (TraR) | V. fischeri-LuxR Activation [%] (LuxR [3]) | E. coli-LasR Inhibition [%] (LasR [4]) | other results
1 | O=C(CC1CCCC1)N[C@H]1CCOC1=O [B12] | 57% | 0% | 0% | 11% | 3% | 19% | 
2 | 4-amino PHL [B26] | 12% | 0% | 0% | 5% | 3% | 8% | 
3 | CCCCCCCCCCCC(=O)N[C@H]1CCOC1=O [A5, C12 AHL] |  |  |  |  |  |  | inhibition at 5 µM (LuxR [1]): 73%; activation at 5 µM (LasR [2]): ~85%; EC50 (LasR [2]; read-out: LasR EC50): 40 nM; activation at 10 µM (TraR): 1%; inhibition at 10 µM (TraR): 22%; activation at 200 µM (LuxR [3]): 2%; inhibition at 5 µM (LasR [4]): -10%
4 | CCCCCCCCCCCS(=O)(=O)N[C@H]1CCOC1=O [A16] | 74% | 0% | 0% | 29% | 1% | 21% | 
5 | COc1ccc(CC(=O)N[C@H]2CCOC2=O)cc1 [B28] | 57% | 0% | 0% | 26% | 3% | 16% | 
6 | 4-hydroxy PHL [C23] |  |  |  |  |  |  | Inhibition (%) (LuxR [1]; V. fischeri-LuxR, Library C primary antagonism screen): 12%; Activation (%) (LasR [2]; E. coli-LasR, Library C primary agonism screen): 0%; Activation (%) (TraR; A. tumefaciens-TraR, Library C primary agonism screen): 0%; Inhibition (%) (TraR; A. tumefaciens-TraR, Library C primary antagonism screen): 3%; Activation (%) (LuxR [3]; V. fischeri-LuxR, Library C primary agonism screen): 2%; Inhibition (%) (LasR [4]; E. coli-LasR, Library C primary antagonism screen): 7%
7 | COc1cc(C(C)=O)ccc1OCC(=O)N[C@H]1CCOC1=O [D16] | 40% | 0% | 0% | 11% | 1% | 18% | 
8 | N-(phenylbutanoyl)-L-homoserine lactone [compound 6, reference compound] | 70% | 3% | 2% | 93% | 3% | ~25% and ~20% | IC50 (TraR; determined against 100 nM OOHL, read-out: TraR IC50): 1120 nM
9 | 4-N-tertbutoxycarbonyl-PHL [B25] | 33% | 27% | 0% | 11% | 2% | 10% | EC50 (LasR [2]; read-out: LasR EC50): > 200000 nM
10 | O=C(CC(=O)N[C@@H]1CCOC1=O)Cc1ccccc1 [B2] | 46% | 84% | 2% | 50% | 3% | −7% | EC50 (LasR [2]; read-out: LasR EC50): 540 nM
11 | O=C(Cc1c(F)c(F)c(F)c(F)c1F)N[C@H]1CCOC1=O [B19, pentafluoroaromatic PHL] | 40% | 2% | 0% | 2% | 2% | 19% | 
12 | CCCCCCC(=O)NC1CCOC1=O (centres unmarked) [compound 4] |  |  |  |  |  |  | IC50 (LuxR [1]): 1360 nM; inhibition at 5 µM (LuxR [1]): ~76%; activation at 5 µM (LasR [2]): 0%; IC50 (TraR): 690 nM; activation at 10 µM (TraR): 4%; inhibition at 10 µM (TraR): ~90%; activation at 200 µM (LuxR [3]): ~25%; inhibition at 5 µM (LasR [4]): ~25%
13 | CCCCCCCCCC(=O)NC1CCOC1=O (centres unmarked) [A4, C10 AHL] |  |  |  |  |  |  | IC50 (LuxR [1]): 900 nM and 400 nM; inhibition at 5 µM (LuxR [1]): 96%; EC50 (LasR [2]): > 200000 nM; activation at 5 µM (LasR [2]): ≤ 44%; IC50 (TraR): 1050 nM; activation at 10 µM (TraR): 2%; inhibition at 10 µM (TraR): 92%; activation at 200 µM (LuxR [3]): 1%; IC50 (LasR [4]): 250 nM; LasR: concentration at which the compound elicits its maximal inhibition (value in parentheses) (LasR [4]; against 7.5 nM OdDHL, dose response curve did not reach 100% inhibition): (2.0)^f μM; inhibition at 5 µM (LasR [4]): 34%
